Assay results: patent US20230097883A1, “ERGOTHIONEINE PET COMPOUNDS AND METHODS OF USE THEREOF” (VANDERBILT UNIVERSITY, priority 2021, published 2023)

How the values were obtained:
5XFAD mice = assay: Conditioned fear task after ERGO treatment; type: in vivo, mouse; conditions: ERGO-treated 5XFAD mice, novel context, 25 hours following training
Protocol: To address our primary question whether longitudinal consumption of ERGO as a potent antioxidant benefit the brain, three cohorts of animals (n=12 non-treated WT control, n=12 non-treated 5XFAD, and n=18 ERGO-treated 5XFAD) were used (FIG. 3.2A). Starting at the age of 8 weeks, the animals were treated with high doses of ERGO solution (25-50 mg/Kg) formulated in double distilled (dd) water via oral gavage three times a week over the course of eight weeks. To reduce bias in the behavioral experiments with regard to the potential stress during gavage treatment, non-treated animals underwent the identical gavage process with the vehicle, water, only. The efficacy of the therapy was evaluated by behavioral testing, followed by three different non-invasive PET imaging sessions to assess biomarkers related to AD pathology. In addition to assessing Abeta levels and glucose metabolism using the [^11C]PIB and [^18F]FDG probes, respectively; we also tested for the first time whether oxidative stress could be used as an indicator of response to therapy using the [^11C]ERGO PET radioligand. Finally, animals were euthanized, and the brains were collected for immunohistochemical analysis. […]
Mice were placed in a sound-attenuating chamber with a wire grid floor capable of transmitting an electric shock. All movements were monitored by cameras fixed to the inside of the doors. […]

oxidative stress = assay: Dynamic microPET uptake and retention of [11C]ERGO in brains of 5XFAD versus WT mice; type: in vivo, mouse; conditions: 10-month-old, n=4, 14.8 MBq in 0.1 mL via tail vein
Protocol: Dynamic uptake and retention of [^11C]ERGO radioligand. Two cohorts of age-matched mice (10-month-old, n=4, each), including 5XFAD and WT animals, were injected with a consistent amount of 14.8 MBq of [^11C]ERGO in 0.1 mL via the tail vein prior to acquiring dynamic imaging. […] In this work, we decided to run 20-min dynamic scans to test, as a proof-of-concept, whether the affinity of ERGO for radicals and/or metals, which are integrated in or very closely associated with Abeta aggregates, would trap the probe. […] The mean percent of ID/g in the brains of 5XFAD mice (n=4) were 0.81±0.09, 0.72±0.09, 0.72±0.10, 0.71±0.12, 0.72±0.08, 0.83±0.10 for cortex, hippocampus, striatum, thalamus, cerebellum and whole brain, respectively, whereas for WT mice (n=4), the values were 0.52±0.13, 0.47±0.18, 0.47±0.15, 0.42±0.18, 0.51±0.13, 0.55±0.14. […] 5XFAD brains are associated with high levels of GFAP and IBA1 expression. After PET/CT imaging, animals underwent through the cardiac perfusion process, and the brains were embedded in OCT solution for micro-sectioning. […] The hippocampal regions of 5XFAD mice, including the dentate gyrus (DG), Cornu ammonis (CA) and the surrounding regions are populated with astrocytes, which were detected and quantified by immunostaining using anti-GFAP antibody. […] Quantitatively, about 2-fold higher levels of this inflammatory marker is found in 5XFAD versus control mice (*p<0.05). In a similar observation, 5XFAD mouse brains have greater numbers of IBA1-positive activated microglia (arrows) compared to WT counterparts.
Dynamic PET imaging. The dynamic acquisition was divided into twelve 5 sec frames, four 60 sec frames, five 120 sec frames, three 5 min frames, and six 10 min scans. The data from all possible lines of response (LOR) were saved in the list mode raw data format. The raw data were then binned into 3D sinograms with a span of 3 and ring difference of 47. The images were reconstructed into transaxial slices (128×128×159) with voxel sizes of 0.0815×0.0815×0.0796 cm^3, using the MAP algorithm with 16 subsets, 4 iterations, and a beta of 0.0468. For anatomical co-registration, immediately following the PET scans, the mice received a CT scan in a NanoSPECT/CT (Mediso, Wash. D.C.) at an X-ray beam intensity of 90 mAs and x-ray peak voltage of 45 kVp. The CT images were reconstructed into 170×170×186 voxels at a voxel size of 0.4×0.4×0.4 mm^3. The PET/CT images were uploaded into Amide software (www.sourceforge.com), co-registered to an MRI template made in-house, and volumetric regions-of-interest were drawn around the cortex, hippocampus, striatum, thalamus, and cerebellum in addition to the whole brain. The PET images were normalized to the injected dose, and the time-activity-curves (TACs) of the mean activity within the ROIs were estimated for the entire duration of the scans.

Row | SMILES | cue-based recall, freezing time while the cue was played (5XFAD mice) | mean percent of ID/g, cerebellum (oxidative stress; 5XFAD mice) | mean percent of ID/g, cortex (oxidative stress; 5XFAD mice) | mean percent of ID/g, hippocampus (oxidative stress; 5XFAD mice) | mean percent of ID/g, striatum (oxidative stress; 5XFAD mice) | mean percent of ID/g, thalamus (oxidative stress; 5XFAD mice) | mean percent of ID/g, whole brain (oxidative stress; 5XFAD mice) | mean percent of ID/g, cerebellum (oxidative stress; WT mice) | mean percent of ID/g, cortex (oxidative stress; WT mice) | mean percent of ID/g, hippocampus (oxidative stress; WT mice) | mean percent of ID/g, striatum (oxidative stress; WT mice) | mean percent of ID/g, thalamus (oxidative stress; WT mice) | mean percent of ID/g, whole brain (oxidative stress; WT mice)
1 | C[N+](C)(C)[C@@H](Cc1c[nH]c(=S)[nH]1)C(=O)[O-] [ERGO, L-ergothioneine] | ~50% | – | – | – | – | – | – | – | – | – | – | – | –
2 | C[N+](C)([11CH3])[C@@H](Cc1c[nH]c(=S)[nH]1)C(=O)[O-] [[^11C]ERGO] | – | 0.72±0.08% of ID/g | 0.81±0.09% of ID/g | 0.72±0.09% of ID/g | 0.72±0.10% of ID/g | 0.71±0.12% of ID/g | 0.83±0.10% of ID/g | 0.51±0.13% of ID/g | 0.52±0.13% of ID/g | 0.47±0.18% of ID/g | 0.47±0.15% of ID/g | 0.42±0.18% of ID/g | 0.55±0.14% of ID/g
